In patent publication US20240182481A1 (Tango Therapeutics, Inc., priority 2021, published 2024):

Columns and labels:
[1] = target: USP1-UAF1 (Homo sapiens, UniProt O94782); test: Ubiquitin Rhodamine assay for USP1-UAF1 activity; type: biochemical
Description: Certain compounds of the disclosure were assessed for USP1-UAF1 activity in a Ubiquitin Rhodamine assay as described in Example 135.

[2] = test system: HCC1954 (BRCA1 WT) cell line; test: Viability assay in BRCA1 WT cell line HCC1954; type: cell-based; settings: Homo sapiens, read-out: HCC 1954 IC50 rel IC50
Description: (§1) Table 1 also indicates IC50 values in a viability assay for a non-isogenic pair of BRCA1 mutant (column 5—MDA-MB-436) and BRCA1 WT (column 6—HCC1954) cell lines. These values indicate the effect of treatment with compound on cell survival.

[3] = test system: monoubiquitinated PCNA; test: AlphaLISA assay measuring monoubiquitinated PCNA in MDA-MB-436; type: cell-based; settings: Homo sapiens, read-out: Alpha LISA IC50
Description: Table 1 also indicates IC50 values for exemplary compounds in an AlphaLISA assay measuring monoubiquitinated PCNA in a BRCA1 mutant cell line (MDA-MB-436; column 7).

[4] = test system: MDA-MB-436 (BRCA1 mutant) cell line; test: Viability assay in BRCA1 mutant cell line MDA-MB-436; type: cell-based; settings: Homo sapiens, MDA-MB-436, viability, BRCA1 mutant MDA-MB-436; read-out: MDA-MB-436 rel IC50
Description: as §1

Sequence of USP1-UAF1 (O94782 whole entry): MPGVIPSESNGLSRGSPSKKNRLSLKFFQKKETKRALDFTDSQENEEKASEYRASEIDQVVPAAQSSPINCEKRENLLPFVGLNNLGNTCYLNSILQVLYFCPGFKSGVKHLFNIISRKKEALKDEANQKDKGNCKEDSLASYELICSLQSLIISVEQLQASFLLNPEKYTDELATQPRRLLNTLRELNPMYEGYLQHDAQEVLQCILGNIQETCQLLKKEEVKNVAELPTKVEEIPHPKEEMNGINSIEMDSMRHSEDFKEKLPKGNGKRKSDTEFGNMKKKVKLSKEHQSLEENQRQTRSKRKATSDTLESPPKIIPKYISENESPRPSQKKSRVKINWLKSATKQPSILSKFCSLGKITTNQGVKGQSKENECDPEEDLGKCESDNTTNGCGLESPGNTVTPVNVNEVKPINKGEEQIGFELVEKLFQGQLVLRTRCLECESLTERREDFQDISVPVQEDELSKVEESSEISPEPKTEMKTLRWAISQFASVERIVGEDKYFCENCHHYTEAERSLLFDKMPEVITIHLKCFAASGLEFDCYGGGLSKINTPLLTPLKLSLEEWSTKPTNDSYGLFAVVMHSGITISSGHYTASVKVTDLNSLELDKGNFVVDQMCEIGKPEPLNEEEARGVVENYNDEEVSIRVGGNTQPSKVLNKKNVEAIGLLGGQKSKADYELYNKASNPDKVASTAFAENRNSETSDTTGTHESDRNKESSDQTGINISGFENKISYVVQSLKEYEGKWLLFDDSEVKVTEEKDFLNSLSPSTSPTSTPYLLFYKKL
Sequence of USP1-UAF1 (Q8TAF3 whole entry partner): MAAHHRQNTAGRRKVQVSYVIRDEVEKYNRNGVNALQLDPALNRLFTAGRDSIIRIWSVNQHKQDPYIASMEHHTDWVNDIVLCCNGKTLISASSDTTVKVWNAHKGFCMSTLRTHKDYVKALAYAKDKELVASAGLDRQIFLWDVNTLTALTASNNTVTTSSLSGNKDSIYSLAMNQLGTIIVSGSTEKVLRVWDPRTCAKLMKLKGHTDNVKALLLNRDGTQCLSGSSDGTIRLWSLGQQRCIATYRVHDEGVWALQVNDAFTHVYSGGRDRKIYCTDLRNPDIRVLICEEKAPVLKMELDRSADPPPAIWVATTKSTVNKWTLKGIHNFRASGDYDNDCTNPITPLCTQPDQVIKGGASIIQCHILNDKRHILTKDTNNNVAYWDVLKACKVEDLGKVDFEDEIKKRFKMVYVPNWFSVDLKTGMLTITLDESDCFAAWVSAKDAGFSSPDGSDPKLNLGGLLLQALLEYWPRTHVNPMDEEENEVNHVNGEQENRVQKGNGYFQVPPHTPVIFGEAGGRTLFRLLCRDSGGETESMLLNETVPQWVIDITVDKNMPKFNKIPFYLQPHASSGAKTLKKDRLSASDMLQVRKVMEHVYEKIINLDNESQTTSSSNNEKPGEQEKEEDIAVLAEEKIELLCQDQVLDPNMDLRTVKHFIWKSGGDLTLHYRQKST

| SMILES | IC50 [1] [nM] | IC50 [2] [nM] | IC50 [3] [nM] | IC50 [4] [nM] |
| --- | --- | --- | --- | --- |
| Cn1cc(C(F)(F)F)nc1-c1ccc(Cc2c(CN)[nH]c3cnc(-c4cccnc4C4CC4)nc23)cc1 [Compound 186] | 30 to 100 | 250 to 10000 | 100 to 250 | 100 to 250 |
| COc1ncnc(C2CC2)c1-c1ncc2[nH]nc(Cc3ccc(-c4nc(C(F)(F)F)cn4C)cc3F)c2n1 [Compound 189, 5-(4-cyclopropyl-6-methoxy-pyrimidin-5-yl)-3-[[2-fluoro-4-[1-methyl-4-(trifluoromethyl)imidazol-2-yl]phenyl]methyl]-1H-pyrazolo[4,3-d]pyrimidine] | 30 to 100 | ≥ 10000 | < 100 | < 100 |
| COc1ncnc(C2CC2)c1-c1ncc2c(n1)c(Cc1ccc(-c3nc(C(F)(F)F)cn3C)cc1)nn2CC(F)(F)F [Compound 190, 5-(4-cyclopropyl-6-methoxy-pyrimidin-5-yl)-3-[[4-[1-methyl-4-(trifluoromethyl)imidazol-2-yl]phenyl]methyl]-1-(2,2,2-trifluoroethyl)pyrazolo[4,3-d]pyrimidine] | 30 to 100 | ≥ 10000 | < 100 | < 100 |
| COc1nccc(C)c1-c1ncc2[nH]nc(Cc3ccc(-c4nc(C(F)(F)F)cn4C)cc3)c2n1 [Compound 191] | 100 to 10000 | ≥ 10000 | 250 to 10000 | 100 to 250 |
| COc1cccc(OC)c1-c1ncc2[nH]cc(Cc3ccc(-c4nc(C(F)(F)F)cn4C)cc3)c2n1 [Compound 194] | 30 to 100 | ≥ 10000 | 250 to 10000 | 100 to 250 |
| COCCc1[nH]c2cnc(-c3c(OC)ncnc3C3CC3)nc2c1Cc1ccc(-c2nc(C(F)(F)F)cn2C)cc1 [Compound 195, 2-(4-cyclopropyl-6-methoxy-pyrimidin-5-yl)-6-(2-methoxyethyl)-7-[[4-[-methyl-4-(trifluoromethyl)imidazol-2-yl]phenyl]methyl]-5H-pyrrolo[3,2-d]pyrimidine] | < 30 | ≥ 10000 | < 100 | < 100 |

Other lines, results leading:

| IC50 [1] [nM] | IC50 [2] [nM] | IC50 [3] [nM] | IC50 [4] [nM] | SMILES |
| --- | --- | --- | --- | --- |
| < 30 | ≥ 10000 | < 100 | < 100 | Cn1cc(C(F)(F)F)nc1-c1ccc(Cc2n[nH]c3cnc(-c4c(C5CC5)ncnc4C4CC4)nc23)cc1 [Compound 183, 5-(4,6-dicyclopropylpyrimidin-5-yl)-3-[[4-[1-methyl-4-(trifluoromethyl)imidazol-2-yl]phenyl]methyl]-1H-pyrazolo[4,3-d]pyrimidine] |
| 30 to 100 | 250 to 10000 | < 100 | < 100 | COc1nc(C)nc(C2CC2)c1-c1ncc2[nH]nc(Cc3ccc(-c4nc(C(F)(F)F)cn4C)cc3)c2n1 [Compound 184, 5-(4-cyclopropyl-6-methoxy-2-methylpyrimidin-5-yl)-3-(4-(1-methyl-4-(trifluoromethyl)-1H-imidazol-2-yl)benzyl)-1H-pyrazolo[4,3-d]pyrimidine] |
| < 30 | ≥ 10000 | < 100 | < 100 | Cn1cc(C(F)(F)F)nc1-c1ccc(Cc2n[nH]c3cnc(-c4c(OC(F)F)ncnc4C4CC4)nc23)cc1 [Compound 185, 5-[4-cyclopropyl-6-(difluoromethoxy)pyrimidin-5-yl]-3-[[4-[1-methyl-4-(trifluoromethyl)imidazol-2-yl]phenyl]methyl]-1H-pyrazolo[4,3-d]pyrimidine] |
| < 30 | ≥ 10000 | < 100 | < 100 | COc1ncnc(C2CC2)c1-c1ncc2[nH]c(C)c(Cc3ccc(-c4nc(C(F)(F)F)cn4C)cc3)c2n1 [Compound 188] |
| < 30 | ≥ 10000 | < 100 | < 100 | Cn1cc(C(F)(F)F)nc1-c1ccc(Cc2c[nH]c3cnc(-c4c(C5CC5)ncnc4C4CC4)nc23)cc1 [Compound 193, 2-(4,6-dicyclopropylpyrimidin-5-yl)-7-[[4-[1-methyl-4-(trifluoromethyl)imidazol-2-yl]phenyl]methyl]-5H-pyrrolo[3,2-d]pyrimidine] |
